Data reported in the supplement of paper PMC11208160.

Test: recombinant UMI read abundance after kanamycin selection (control-corrected) (log10(CPM+1)); higher = more efficient recombination; extreme values may be limits of the assay; sequences stand for … in AGTGCAGAGAAAATCGGCCAGTTTTCTCTGCCTGCAGTCCGCATGCCGTGGGACCCCTTGGGTTCTAACCTGTTGCCTAGATTTATGCAGCGGACTGCCTTTCTCCCAAAGTGATAAACCGG…AGGTTGGTTTCACT; site = the 11-nt donor
Procedure, shortened: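 Two replicates each of selected and unselected plating were used in this pooled Escherichia coli screen of donor and donor-binding-loop pairs for the IS621 bridge recombinase. Selection was with IPTG (0.07 mM) and kanamycin. Counts of recombinant UMIs, amplified across the donor–target junction, were converted to CPM, averaged, scaled by control-derived factors and reported as log10(CPM+1).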
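Note: IS621 bridge recombinase in Escherichia coli cells against a fixed T5 target plasmid.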

Row | Sequence | recombinant UMI read abundance (log10)
1 | TACTTGACATGGACCGGTTTTCCCGGTAATCCGTATTTGCA (site TACTTGACTCG) | 0.0381
2 | TACTTGACATGGACCGGTTTTCCCGGTAATCCGTATTTGCA (site TACTTGACTGG) | 0
3 | TACTTGACATGGACCGGTTTTCCCGGTAATCCGTATTTGCA (site TACTTGACTTG) | 0.591
4 | TACTTGACATGGACCGGTTTTCCCGGTAATCCGTATTTGCT (site AACTTGACTAG) | 0
5 | TACTTGACATGGACCGGTTTTCCCGGTAATCCGTATTTGCT (site CACTTGACTAG) | 0.342
6 | TACTTGACATGGACCGGTTTTCCCGGTAATCCGTATTTGCT (site GACTTGACTAG) | 0.00311
7 | TACTTGACATGGACCGGTTTTCCCGGTAATCCGTATTTGCT (site TAATTGACTAG) | 0.201
8 | TACTTGACATGGACCGGTTTTCCCGGTAATCCGTATTTGCT (site TACATGACTAG) | 0.0307
9 | TACTTGACATGGACCGGTTTTCCCGGTAATCCGTATTTGCT (site TACCTGACTAG) | 0.89
10 | TACTTGACATGGACCGGTTTTCCCGGTAATCCGTATTTGCT (site TACGTGACTAG) | 0.16
11 | TACTTGACATGGACCGGTTTTCCCGGTAATCCGTATTTGCT (site TACTAGACTAG) | 0.43
12 | TACTTGACATGGACCGGTTTTCCCGGTAATCCGTATTTGCT (site TACTCGACTAG) | 0.277
13 | TACTTGACATGGACCGGTTTTCCCGGTAATCCGTATTTGCT (site TACTGGACTAG) | 0.46
14 | TACTTGACATGGACCGGTTTTCCCGGTAATCCGTATTTGCT (site TACTTAACTAG) | 0
15 | TACTTGACATGGACCGGTTTTCCCGGTAATCCGTATTTGCT (site TACTTCACTAG) | 0.00555
16 | TACTTGACATGGACCGGTTTTCCCGGTAATCCGTATTTGCT (site TACTTGACTAA) | 0.00336
17 | TACTTGACATGGACCGGTTTTCCCGGTAATCCGTATTTGCT (site TACTTGACTAC) | 0.0348
18 | TACTTGACATGGACCGGTTTTCCCGGTAATCCGTATTTGCT (site TACTTGACTAG) | 1.12
19 | TACTTGACATGGACCGGTTTTCCCGGTAATCCGTATTTGCT (site TACTTGACTAT) | 0.00796
20 | TACTTGACATGGACCGGTTTTCCCGGTAATCCGTATTTGCT (site TACTTGACTCG) | 0
21 | TACTTGACATGGACCGGTTTTCCCGGTAATCCGTATTTGCT (site TACTTGACTGG) | 0
22 | TACTTGACATGGACCGGTTTTCCCGGTAATCCGTATTTGCT (site TACTTGACTTG) | 0.00876
23 | TACTTGACATGGACCGGTTTTCCCGGTAATCCGTATTTGCT (site TACTTGCCTAG) | 0

Row | Sequence | recombinant UMI read abundance (log10)
24 | TACTTGACATGGACCGGTTTTCCCGGTAATCCGTATTTGCT (site TACTTGGCTAG) | 0.00865
25 | TACTTGACATGGACCGGTTTTCCCGGTAATCCGTATTTGCT (site TACTTGTCTAG) | 0.0219
26 | TACTTGACATGGACCGGTTTTCCCGGTAATCCGTATTTGCT (site TACTTTACTAG) | 0
27 | TACTTGACATGGACCGGTTTTCCCGGTAATCCGTATTTGCT (site TAGTTGACTAG) | 0.00537
28 | TACTTGACATGGACCGGTTTTCCCGGTAATCCGTATTTGCT (site TATTTGACTAG) | 0.0574
29 | TACTTGACATGGACCGGTTTTCCCGGTAATCCGTATTTGCT (site TCCTTGACTAG) | 0.255
30 | TACTTGACATGGACCGGTTTTCCCGGTAATCCGTATTTGCT (site TGCTTGACTAG) | 0.0612
31 | TACTTGACATGGACCGGTTTTCCCGGTAATCCGTATTTGCT (site TTCTTGACTAG) | 0
32 | TACTTGCCATGGACCGGTTTTCCCGGTAATCCGTATTTGCT (site TACTTGACTAG) | 0.00966
33 | TACTTGCCATGGACCGGTTTTCCCGGTAATCCGTATTTGCT (site TACTTGCCTAG) | 0.597
34 | TACTTGCCATGGACCGGTTTTCCCGGTAATCCGTATTTGCT (site TACTTGGCTAG) | 0.00743
35 | TACTTGCCATGGACCGGTTTTCCCGGTAATCCGTATTTGCT (site TACTTGTCTAG) | 0.383
36 | TACTTGGCATGGACCGGTTTTCCCGGTAATCCGTATTTGTG (site TAATTGGCTCA) | 0.0141
37 | TACTTGGCATGGACCGGTTTTCCCGGTAATCCGTATTTGTG (site TACTTGGCTCA) | 0.305
38 | TACTTGGCATGGACCGGTTTTCCCGGTAATCCGTATTTGTG (site TAGTTGGCTCA) | 0.017
39 | TACTTGGCATGGACCGGTTTTCCCGGTAATCCGTATTTGTG (site TATTTGGCTCA) | 0.00802
40 | TACTTGTCATGGACCGGTTTTCCCGGTAATCCGTATTTGCT (site TACTTGACTAG) | 0
41 | TACTTGTCATGGACCGGTTTTCCCGGTAATCCGTATTTGCT (site TACTTGCCTAG) | 0.649
42 | TACTTGTCATGGACCGGTTTTCCCGGTAATCCGTATTTGCT (site TACTTGGCTAG) | 0.00306
43 | TACTTGTCATGGACCGGTTTTCCCGGTAATCCGTATTTGCT (site TACTTGTCTAG) | 1.51
44 | TACTTTCCATGGACCGGTTTTCCCGGTAATCCGTATTTGCC (site TACTTTCCTGG) | 0
45 | TAGAAAACATGGACCGGTTTTCCCGGTAATCCGTATTTGCA (site TAGAAAACTTG) | 1.54
46 | TAGAAAACATGGACCGGTTTTCCCGGTAATCCGTATTTGCA (site TAGAACACTTG) | 1.57

Row | Sequence | recombinant UMI read abundance (log10)
47 | TAGAAAACATGGACCGGTTTTCCCGGTAATCCGTATTTGCA (site TAGAAGACTTG) | 0.00894
48 | TAGAAAACATGGACCGGTTTTCCCGGTAATCCGTATTTGCA (site TAGAATACTTG) | 0
49 | TAGAAGACATGGACCGGTTTTCCCGGTAATCCGTATTTGCA (site TAGAAAACTTG) | 0
50 | TAGAAGACATGGACCGGTTTTCCCGGTAATCCGTATTTGCA (site TAGAACACTTG) | 0.985
51 | TAGAAGACATGGACCGGTTTTCCCGGTAATCCGTATTTGCA (site TAGAAGACTTG) | 2.51
52 | TAGAAGACATGGACCGGTTTTCCCGGTAATCCGTATTTGCA (site TAGAATACTTG) | 0
53 | TAGAATACATGGACCGGTTTTCCCGGTAATCCGTATTTGCG (site TAGAATACTAG) | 0
54 | TAGAATACATGGACCGGTTTTCCCGGTAATCCGTATTTGCG (site TAGAATACTCG) | 2.06
55 | TAGAATACATGGACCGGTTTTCCCGGTAATCCGTATTTGCG (site TAGAATACTGG) | 0
56 | TAGAATACATGGACCGGTTTTCCCGGTAATCCGTATTTGCG (site TAGAATACTTG) | 0.239
57 | TAGAATTCATGGACCGGTTTTCCCGGTAATCCGTATTTGTA (site TAGAATTCTTA) | 1.67
58 | TAGACTACATGGACCGGTTTTCCCGGTAATCCGTATTTGCA (site TAGAATACTTG) | 0.379
59 | TAGACTACATGGACCGGTTTTCCCGGTAATCCGTATTTGCA (site TAGACTACTTG) | 1.62
60 | TAGACTACATGGACCGGTTTTCCCGGTAATCCGTATTTGCA (site TAGAGTACTTG) | 0.0124
61 | TAGACTACATGGACCGGTTTTCCCGGTAATCCGTATTTGCA (site TAGATTACTTG) | 0.502
62 | TAGATTACATGGACCGGTTTTCCCGGTAATCCGTATTTGTA (site TAGATTACTTA) | 0.528
63 | TAGCAAGCATGGACCGGTTTTCCCGGTAATCCGTATTTGAA (site TAGCAAGCTTT) | 1.45
64 | TAGCAAGCATGGACCGGTTTTCCCGGTAATCCGTATTTGAA (site TAGCCAGCTTT) | 0.0116
65 | TAGCAAGCATGGACCGGTTTTCCCGGTAATCCGTATTTGAA (site TAGCGAGCTTT) | 0.00665
66 | TAGCAAGCATGGACCGGTTTTCCCGGTAATCCGTATTTGAA (site TAGCTAGCTTT) | 0.00716
67 | TAGCATACATGGACCGGTTTTCCCGGTAATCCGTATTTGCA (site TAGAATACTTG) | 0
68 | TAGCATACATGGACCGGTTTTCCCGGTAATCCGTATTTGCA (site TAGCATACTTG) | 1.62
